# Reference: paper PMC7824903, “Dual Carbonic Anhydrase IX/XII Inhibitors and Carbon Monoxide Releasing Molecules Modulate LPS-Mediated Inflammation in Mouse Macrophages” (Antioxidants, 2021)
# What was measured:
# [1] = target: T1, hCA IX (Homo sapiens, UniProt Q16790); experiment: stopped-flow CO2 hydrase assay; assay type: biochemical
# T1 construct: gene CA9; recombinant, obtained in-house
# [2] = target: T1, hCA IX; experiment: stopped-flow CO2 hydrase assay; assay type: biochemical; details: CO2 […], […] Hepes pH […] Na2SO4, […] min preincubation at room temperature
# [3] = target: T1, hCA IX; experiment: biochemical; design: Stopped-flow CO2 hydrase assay, phenol red absorbance at 557 nm, KI by Cheng-Prusoff
# Procedure: (§1) An Applied Photophysics stopped-flow instrument has been used for assaying the CA catalysed CO2 hydration activity. Phenol red (at a concentration of 0.2 mM) has been used as indicator, working at the absorbance maximum of 557 nm, with 20 mM Hepes (pH 7.5) as buffer, and 20 mM Na2SO4 (for maintaining constant the ionic strength), following the initial rates of the CA-catalyzed CO2 hydration reaction for a period of 10–100 s. The CO2 concentrations ranged from 1.7 to 17 mM for the determination of the kinetic parameters and inhibition constants. For each inhibitor at least six traces of the initial 5–10% of the reaction have been used for determining the initial velocity. The uncatalyzed rates were determined in the same manner and subtracted from the total observed rates. Stock solutions of inhibitor (0.1 mM) were prepared in distilled-deionized water and dilutions up to 0.01 nM were done thereafter with the assay buffer. Inhibitor and enzyme solutions were preincubated together for 15 min at room temperature prior to assay, to allow for the formation of the E-I complex. The inhibition constants were obtained by non-linear least-squares methods using PRISM 3 and the Cheng–Prusoff equation, as reported earlier, and represent the mean from at least three different determinations. All CA isoforms were recombinant ones obtained in-house as reported earlier. […] DCH/CO-RM derivatives 1–10 were therefore investigated as inhibitors of the hCAs I, II, IX, and XII by means of the Stopped-Flow CO2 hydrase assay.
# [4] = target: T2, hCA XII (Homo sapiens, UniProt O43570); experiment: biochemical; design: Stopped-flow CO2 hydrase assay, phenol red absorbance at 557 nm, KI by Cheng-Prusoff
# T2 construct: gene CA12; recombinant, obtained in-house
# T2 sequence (O43570 30-289 limits assumed): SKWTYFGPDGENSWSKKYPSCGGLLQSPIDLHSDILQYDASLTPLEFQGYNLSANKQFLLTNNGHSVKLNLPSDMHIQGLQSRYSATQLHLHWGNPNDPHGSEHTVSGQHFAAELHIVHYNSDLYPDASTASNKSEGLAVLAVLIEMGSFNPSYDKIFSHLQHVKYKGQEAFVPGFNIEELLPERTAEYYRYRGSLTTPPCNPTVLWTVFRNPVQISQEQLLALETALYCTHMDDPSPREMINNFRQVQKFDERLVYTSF
# Procedure: as §1
# [5] = target: T2, hCA XII; experiment: stopped-flow CO2 hydrase assay; assay type: biochemical; details: CO2 […], […] Hepes pH […] Na2SO4, […] min preincubation at room temperature
# [6] = target: T3, hCA I (Homo sapiens, UniProt P00915); experiment: biochemical; design: Stopped-flow CO2 hydrase assay, phenol red absorbance at 557 nm, KI by Cheng-Prusoff
# T3 construct: gene CA1; recombinant, obtained in-house
# T3 sequence (P00915 2-261): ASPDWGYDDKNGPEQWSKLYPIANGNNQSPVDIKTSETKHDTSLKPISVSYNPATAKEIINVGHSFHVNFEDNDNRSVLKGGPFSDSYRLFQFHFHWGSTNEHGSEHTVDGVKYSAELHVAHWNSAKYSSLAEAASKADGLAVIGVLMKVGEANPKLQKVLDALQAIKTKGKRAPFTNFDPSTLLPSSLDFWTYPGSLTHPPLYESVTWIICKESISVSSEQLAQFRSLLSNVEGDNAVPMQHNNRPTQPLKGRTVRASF
# Procedure: as §1
# [7] = target: T4, hCA II (Homo sapiens, UniProt P00918); experiment: biochemical; design: Stopped-flow CO2 hydrase assay, phenol red absorbance at 557 nm, KI by Cheng-Prusoff
# T4 construct: gene CA2; recombinant, obtained in-house
# Procedure: as §1
# [8] = target: T2, hCA XII; experiment: stopped-flow CO2 hydrase assay; assay type: biochemical
SMILES,Ki [3] [nM],Ki [4] [nM],Ki [6] [nM],Ki [7] [nM],other results
C#CCOC1=NS(=O)(=O)OC(C)=C1 [a],,,,,"Ki ([1]; CO2 […], […] Hepes pH […] Na2SO4, […] min preincubation at room temperature): 0.252 µM"
"C#CCN1C(=O)C=C(C)OS1(=O)=O [b, 6-methyl-3-(prop-2-yn-1-yl)-1,2,3-oxathiazin-4(3H)-one 2,2-dioxide]",358,378,,,KI [2]: compound b exhibited a loss of inhibitory activity after the CO releasing group linkage; KI [5]: Compounds a and b showed better inhibitory activity against isoform XII
"C#CCOc1cccc2cc(C(=O)c3ccccc3)c(=O)oc12 [f, 3-benzoyl-8-(prop-2-yn-1-yloxy)-2H-chromen-2-one]",,4920,> 100000,> 100000,KI [5]: maintained unchanged their inhibitory activity against hCA XII; Ki [1]: 0.695 µM
"C#CCOc1ccc2oc(=O)c(C(=O)c3ccccc3)cc2c1 [g, 3-benzoyl-6-(prop-2-yn-1-yloxy)-2H-chromen-2-one]",,,,,Ki [8]: 0.353 µM; Ki [1]: 0.315 µM
"C#CCOc1cccc2cc(C(=O)OCC)c(=O)oc12 [h, ethyl 2-oxo-8-(prop-2-yn-1-yloxy)-2H-chromene-3-carboxylate]",,,> 100000,> 100000,
C#CCOc1ccc(C2=NN(C(C)=O)C(c3ccccc3OC)C2)cc1 (stereo not shown) [i],> 100000,> 100000,> 100000,> 100000,
C#CCOc1ccc(-c2nc3ccccc3n2-c2ccccc2)cc1 [l],> 100000,> 100000,> 100000,> 100000,
